Laboratory results from US7517889B2, “2,6-substituted-4-monosubstitutedamino-pyrimidine as prostaglandin D2 receptor antagonists” (Aventis Pharmaceuticals, Inc., priority 2004, dated 2009).
Structures can show the parent of a compound that is named as a salt.

What follows are compounds tested against T1, DP receptor (Homo sapiens, UniProt Q13258) (assay: SPA cAMP assay in human LS174 T cells (human DP functional assay)). Conditions: inhibition of PGD2 (15 nM final) stimulated cAMP, LS174T cells expressing endogenous DP receptor.
T1 construct: the human cell line LS174T, which expresses the endogenous DP receptor; endogenous in cells; host or cells: LS174T human cell line
T1 sequence (Q13258 1-359): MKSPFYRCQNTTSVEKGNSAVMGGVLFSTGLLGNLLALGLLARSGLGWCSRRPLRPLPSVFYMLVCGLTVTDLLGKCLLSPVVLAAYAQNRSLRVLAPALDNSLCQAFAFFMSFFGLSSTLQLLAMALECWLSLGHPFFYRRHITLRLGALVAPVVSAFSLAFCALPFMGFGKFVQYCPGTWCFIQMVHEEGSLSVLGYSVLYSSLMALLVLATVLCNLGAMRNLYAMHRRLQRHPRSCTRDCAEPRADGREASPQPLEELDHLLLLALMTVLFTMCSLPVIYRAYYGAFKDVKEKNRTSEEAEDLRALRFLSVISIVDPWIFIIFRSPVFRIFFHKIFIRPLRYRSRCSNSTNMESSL
Type: cell-based
How it was run: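 LS174T cells with endogenous DP receptor, 45,000/well seeded overnight, exposed to compounds at 11 points for 15 min at 37 °C in buffer containing IBMX, with PGD2 stimulation.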
`COc1ccc(CCNc2cc(-c3cccc(C(=O)O)c3)nc(SC)n2)cc1OC` [Example 16(b), 3-{6-[2-(3,4-Dimethoxy-phenyl)-ethylamino]-2-methylsulfanyl-pyrimidin-4-yl}-benzoic acid] showed an IC50 of 243 nM.
Compound `COc1nc(NCCc2ccc(OC(F)(F)F)cc2)cc(-c2cccc(NC(C)=O)c2)n1` [Example 6(a), N-(3-{2-Methoxy-6-[2-(4-trifluoromethoxy-phenyl)-ethylamino]-pyrimidin-4-yl}phenyl)-acetamide] has an IC50 of 4.8 nM.
In the case of `COc1cccc(-c2cc(NCCc3cccnc3)nc(OC)n2)c1` [Example 43(i), [2-Methoxy-6-(3-methoxy-phenyl)-pyrimidin-4-yl]-(2-pyridin-3-yl-ethyl)-amine hydrochloride], the IC50 is reported as 248 nM.
In the case of `COc1ccc(CCNc2cc(-c3c(C)noc3C)nc(OC)n2)cc1` [Example 8(d), [6-(3,5-Dimethyl-isoxazol-4-yl)-2-methoxy-pyrimidin-4-yl]-[2-(4-methoxy-phenyl)-ethyl]-amine], the IC50 is reported as 1.9 nM.
Work on `COc1nc(NCCc2ccc(Cl)cc2)cc(-c2cccc(C(=O)O)c2)n1` [Example 35(n), 3-{6-[2-(4-chlorophenyl)-ethylamino]-2-methoxy-pyrimidin-4-yl}-benzoic acid hydrochloride] yielded an IC50 of 0.6 nM.
`COc1nc(NCCc2ccc(Cl)cc2Cl)cc(-c2cccc(C(=O)O)c2)n1` [Example 35(w), 3-{6-[2-(2,4-dichloro-phenyl)-ethylamino]-2-methoxy-pyrimidin-4-yl}-benzoic acid] showed an IC50 of 0.3 nM.
With `COc1ccc(CCNc2cc(-c3cccc(Cc4nnn[nH]4)c3)nc(OC)n2)cc1` [Example 24(b), [2-(4-Methoxy-phenyl)-ethyl]-{2-methoxy-6-[3-(1H-tetrazol-5-ylmethyl)-phenyl]-pyrimidin-4-yl}-amine hydrochloride] the IC50 was 0.1 nM.
`COc1nc(NCCc2ccc(Cl)cc2Cl)cc(-c2cc(C(C)(C)C(=O)O)ccc2F)n1` [Example 99, 2-(3-{6-[2-(2,4-Dichloro-phenyl)-ethylamino]-2-methoxy-pyrimidin-4-yl}-4-fluoro-phenyl)-2-methyl-propionic acid hydrochloride] gave an IC50 of 0.5 nM.
With `COc1nc(NCC2CN(C)c3ccccc3O2)cc(-c2cccc(C(C)(C)C(=O)O)c2)n1` (stereo not shown) [Example 92, 2-(3-{2-Methoxy-6-[(4-methyl-3,4-dihydro-2H-benzo[1,4]oxazin-2-ylmethyl)-amino]-pyrimidin-4-yl}-phenyl)-2-methyl-propionic acid] the IC50 was 278 nM.
With `COc1nc(NCCc2ccc(OC(F)(F)F)cc2)cc(-c2cccc(C3(C(=O)NS(C)(=O)=O)CCOCC3)c2)n1` [Example 84(a), N-[4-(3-{2-Methoxy-6-[2-(4-trifluoromethoxy-phenyl)-ethylamino]-pyrimidin-4-yl}-phenyl)-tetrahydro-pyran-4-carbonyl]-methanesulfonamide] the IC50 was 0.7 nM.
Compound `COc1ccc(CCNc2cc(-c3ccc(CN4CCCC4)s3)nc(OC)n2)cc1` [Example 13(a), [2-(4-Methoxy-phenyl)-ethyl]-[2-methoxy-6-(5-pyrrolidin-1-ylmethyl-thiophen-2-yl)-pyrimidin-4-yl]-amine] has an IC50 of 44 nM.
For `COc1nc(NCC(F)(F)c2ccccc2)cc(-c2cccc(C(C)(C)C(=O)O)c2)n1` [Example 67, 2-{3-[6-(2,2-Difluoro-2-phenyl-ethylamino)-2-methoxy-pyrimidin-4-yl]-phenyl}-2-methyl-propionic acid], the IC50 was 38 nM.
Compound `COc1nc(NCCc2ccc(Cl)cc2Cl)cc(-c2cccc(C3(C(=O)O)CCCC3)c2)n1` [Example 74, 1-(3-{6-[2-(2,4-Dichloro-phenyl)-ethylamino]-2-methoxy-pyrimidin-4-yl}-phenyl)-cyclopentanecarboxylic acid hydrochloride] has an IC50 of 0.5 nM.
In the case of `COCC(=O)NCc1cc(-c2cc(NCCc3ccc(OC)cc3)nc(OC)n2)ccc1F` [Example 28, N-(2-Fluoro-5-{2-methoxy-6-[2-(4-methoxy-phenyl)-ethylamino]-pyrimidin-4-yl}-benzyl)-2-methoxy-acetamide hydrochloride], the IC50 is reported as 9 nM.
With `COc1ccc(CCNc2cc(-c3ccc(CO)s3)nc(OC)n2)cc1` [Example 9(a), (5-{2-Methoxy-6-[2-(4-methoxy-phenyl)-ethylamino]-pyrimidin-4-yl}-thiophen-2-yl)-methanol] the IC50 was 0.55 nM.
Compound `COc1nc(NCCc2ccc(Cl)cc2Cl)cc(-c2cccc(C(C)(C)C(=O)OCC(O)CO)c2)n1` (stereo not shown) [Example 89, 2-(3-{6-[2-(2,4-Dichloro-phenyl)-ethylamino]-2-methoxy-pyrimidin-4-yl}-phenyl)-2-methyl-propionic acid 2,3-dihydroxy-propyl ester] has an IC50 of 18 nM.
For `COc1nc(NCCc2ccc(OC(F)(F)F)cc2)cc(-c2ccc3c(c2)CC(C(=O)O)O3)n1` (stereo not shown) [Example 88, 5-{2-Methoxy-6-[2-(4-trifluoromethoxy-phenyl)-ethylamino]-pyrimidin-4-yl}-2,3-dihydro-benzofuran-2-carboxylic acid hydrochloride], the IC50 was 3.1 nM.
`COc1nc(NCCc2ccc(Cl)cc2Cl)cc(N2CCCC(C(=O)O)C2)n1` (stereo not shown) [Example 73, 1-{6-[2-(2,4-Dichloro-phenyl)-ethylamino]-2-methoxy-pyrimidin-4-yl}-piperidine-3-carboxylic acid] showed an IC50 of 0.8 nM.
For `COc1ccc(CCNc2cc(-c3cccc(C#N)c3)nc(OC)n2)cc1` [Example 35(t), 3-{2-Methoxy-6-[2-(4-methoxy-phenyl)-ethylamino]-pyrimidin-4-yl}-benzonitrile], the IC50 was 0.9 nM.
Work on `COc1nc(NCCc2ccc(Cl)cc2Cl)cc(-c2cccc(C(C)C(=O)O)c2)n1` (stereo not shown) [Example 49(a), 2-(3-{6-[2-(2,4-Dichloro-phenyl)-ethylamino]-2-methoxy-pyrimidin-4-yl}-phenyl)-propionic acid hydrochloride] yielded an IC50 of 1 nM.
For `COc1ccc(CCNc2cc(-c3ccccc3O)nc(OC)n2)cc1` [Example 35(r), 2-{2-Methoxy-6-[2-(4-methoxy-phenyl)-ethylamino]-pyrimidin-4-yl}-phenol], the IC50 was 17 nM.
Compound `CCOC(=O)C(C)(C)Oc1cccc(-c2cc(NCCc3ccc(OC)cc3)nc(OC)n2)c1` [Example 22(a), 2-(3-{2-Methoxy-6-[2-(4-methoxy-phenyl)-ethylamino]-pyrimidin-4-yl}-phenoxy)-2-methyl-propionic acid ethyl ester] has an IC50 of 60 nM.
Compound `COc1ccc(CCNc2cc(-c3nnc(C)o3)nc(OC)n2)cc1` [Example 44, [2-Methoxy-6-(5-methyl-[-1,3,4]oxadiazol-2-yl)-pyrimidin-4-yl]-[2-(4-methoxy-phenyl)-ethyl]-amine] has an IC50 of 55 nM.
Compound `COc1ccc(CCNc2cc(-c3cccc(S(C)(=O)=O)c3)nc(OC)n2)cc1` [Example 10(i)] has an IC50 of 7.3 nM.
`COc1ccc(CCNc2cc(-c3cccc(-c4nc(C)no4)c3)nc(OC)n2)cc1` [Example 36, {2-Methoxy-6-[3-(3-methyl-[1,2,4]oxadiazol-5-yl)-phenyl]-pyrimidin-4-yl}-[2-(4-methoxy-phenyl)-ethyl]-amine] was tested, and the IC50 was 2.6 nM.
